Patent US9890171B2, “Aldosterone synthase inhibitors” (Boehringer Ingelheim International GmbH, priority 2014, dated 2018)

What follows are compounds tested against aldosterone synthase (CYP11B2) (Macaca fascicularis, UniProt A0A2K5UPL9) (assay: aldosterone synthase inhibition assay). Conditions: cynomolgus adrenal gland mitochondria, 2 μM corticosterone, aldosterone quantified by mass spectrometry.
Type: biochemical, cynomolgus monkey
Method in brief: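 Cynomolgus adrenal mitochondria ([…]) used as CYP11B2 source with 2 μM corticosterone in 100 mM potassium phosphate pH 7.4, 1% DMSO; reaction started with 1 mM NADPH, run 60-90 min at 37° C. Aldosterone measured by mass spectrometry; IC50 from 4-parameter logistic fit, no-NADPH blank as 0%.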

aldosterone synthase (CYP11B2), sequence (A0A2K5UPL9 1-503): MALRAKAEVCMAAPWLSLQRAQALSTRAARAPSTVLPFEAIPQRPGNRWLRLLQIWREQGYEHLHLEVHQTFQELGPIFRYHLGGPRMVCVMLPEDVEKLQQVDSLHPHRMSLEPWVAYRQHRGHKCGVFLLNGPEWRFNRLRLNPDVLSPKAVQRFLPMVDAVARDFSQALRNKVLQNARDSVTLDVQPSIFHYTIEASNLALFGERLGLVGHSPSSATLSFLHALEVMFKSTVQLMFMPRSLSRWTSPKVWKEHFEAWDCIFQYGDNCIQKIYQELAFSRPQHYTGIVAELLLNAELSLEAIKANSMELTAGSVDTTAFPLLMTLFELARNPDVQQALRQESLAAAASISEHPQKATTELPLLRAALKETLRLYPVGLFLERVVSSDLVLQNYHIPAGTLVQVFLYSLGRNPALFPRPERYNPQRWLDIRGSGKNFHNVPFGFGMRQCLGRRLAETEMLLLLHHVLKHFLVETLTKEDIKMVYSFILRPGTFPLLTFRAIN

Structure (SMILES) | IC50 [nM]
Cn1nnc2ccc(-c3cncc4c3COCC4O)cc21 (single isomer, unassigned) [Compound 188, 8-(3-Methyl-3H-benzotriazol-5-yl)-3,4-dihydro-1H-pyrano[4,3-c]pyridin-4-ol] | 21
Cn1ncc2c1C=C(c1cncc3c1COCC3O)CC2 (single isomer, unassigned) [Compound 189, 8-(1-Methyl-4,5-dihydro-1H-indazol-6-yl)-3,4-dihydro-1H-pyrano[4,3-c]pyridin-4-ol] | 67
Cn1ncc2c1CC(c1cncc3c1COCC3O)CC2 (single isomer, unassigned) [Compound 190, 8-(1-Methyl-4,5,6,7-tetrahydro-1H-indazol-6-yl)-3,4-dihydro-1H-pyrano[4,3-c]pyridin-4-ol] | 340
Cn1ncc2c1CC(c1cncc3c1COCC3O)CC2 (single isomer, unassigned) [Compound 191, 8-(1-Methyl-4,5,6,7-tetrahydro-1H-indazol-6-yl)-3,4-dihydro-1H-pyrano[4,3-c]pyridin-4-ol] | 48
N#CC1CC=C(c2cncc3c2COCC3O)CC1 (single isomer, unassigned) [Compound 192, 4-(4-Hydroxy-3,4-dihydro-1H-pyrano[4,3-c]pyridin-8-yl)-cyclohex-3-enecarbonitrile] | 14
CCC(=O)NC1COCc2c(-c3cc4c(cnn4C)cc3F)cncc21 (single isomer, unassigned) [Compound 193, N-[8-(5-Fluoro-1-methyl-1H-indazol-6-yl)-3,4-dihydro-1H-pyrano[4,3-c]pyridin-4-yl]-propionamide] | 38
CCC(=O)NC1COCc2c(-c3ccc4c(c3)COCC4(F)F)cncc21 (single isomer, unassigned) [Compound 194, N-[8-(4,4-Difluoro-isochroman-7-yl)-3,4-dihydro-1H-pyrano[4,3-c]pyridin-4-yl]-propionamide] | 38
CCS(=O)(=O)NC1COCc2c(-c3cc4c(cnn4C)cc3F)cncc21 (single isomer, unassigned) [Compound 195, Ethanesulfonic acid [8-(5-fluoro-1-methyl-1H-indazol-6-yl)-3,4-dihydro-1H-pyrano[4,3-c]pyridin-4-yl]-amide] | 140
CCS(=O)(=O)NC1COCc2c(-c3ccc4c(c3)COCC4(F)F)cncc21 (single isomer, unassigned) [Compound 196, Ethanesulfonic acid [8-(4,4-difluoro-isochroman-7-yl)-3,4-dihydro-1H-pyrano[4,3-c]pyridin-4-yl]-amide] | 330
Cn1nnc2ccc(-c3cncc4c3COC3(CC3)C4O)cc21 (single isomer, unassigned) [Compound 197, 8-(3-methylbenzotriazol-5-yl)spiro[1,4-dihydropyrano[4,3-c]pyridine-3,1′-cyclopropane]-4-ol] | 18
Cn1nnc2ccc(-c3cncc4c3COC3(CC3)C4O)cc21 (single isomer, unassigned) [Compound 198, 8-(3-methylbenzotriazol-5-yl)spiro[1,4-dihydropyrano[4,3-c]pyridine-3,1′-cyclopropane]-4-ol] | 19
OC1COCc2c(-c3ccc4c(c3)COCC4(F)F)cncc21 (single isomer, unassigned) [Compound 199, 8-(4,4-Difluoro-isochroman-7-yl)-3,4-dihydro-1H-pyrano[4,3-c]pyridin-4-ol] | 22
OC1COCc2c(-c3ccc4c(c3)COCC4(F)F)cncc21 (single isomer, unassigned) [Compound 200, 8-(4,4-Difluoro-isochroman-7-yl)-3,4-dihydro-1H-pyrano[4,3-c]pyridin-4-ol] | 279
Cn1ncc2ccc(-c3cncc4c3COCC4C#N)cc21 (centres unmarked) [Compound 9, 8-(1-Methyl-1H-indazol-6-yl)-3,4-dihydro-1H-pyrano[4,3-c]pyridine-4-carbonitrile] | 5.7
NC(=O)N1CCCc2cc(-c3cncc4c3COCC4O)cnc21 (centres unmarked) [Compound 102, 6-(4-Hydroxy-3,4-dihydro-1H-pyrano[4,3-c]pyridin-8-yl)-3,4-dihydro-2H-[1,8]naphthyridine-1-carboxylic acid amide] | 64.9
NC(=O)N1CCCc2cc(-c3cncc4c3C(O)COC4)cnc21 (centres unmarked) [Compound 160, 6-(4-Hydroxy-3,4-dihydro-1H-pyrano[3,4-c]pyridin-5-yl)-3,4-dihydro-2H-[1,8]naphthyridine-1-carboxylic acid amide] | 51.1
CCS(=O)(=O)NC1COCc2c(-c3ccc4c(c3)CCC4O)cncc21 (centres unmarked) [Compound 184, Ethanesulfonic acid [8-(1-hydroxy-indan-5-yl)-3,4-dihydro-1H-pyrano[4,3-c]pyridin-4-yl]-amide] | 124
